Patent US8318809B2, “Compositions and methods for treating jellyfish stings” (priority 2006, dated 2012)
Structures can show the parent of a compound that is named as a salt.

Experiments:
[1] = tested on: sea wasp (Chiropsalmus quadumanus) stings; assay: Jellyfish sting test on inner forearm of human test subjects, sea wasp; format: in vivo; conditions: for maintenance of relief: 5% lidocaine in 80:20 water:propylene glycol, 5% benzocaine in 90:10 propylene glycol:acetone, control sites decreased after 2-3 h; for red rash at sting site: 5% lidocaine or 5% benzocaine formulations vs other treatments; for time to sting relief: 10% lidocaine in 50:50 water:propylene glycol, 10% benzocaine in 90:10 propylene glycol:acetone
Excerpt: These are the two most common types of stinging jellies that occur with frequency and/or regularity in normal swimming waters on the USA east coast north of Cape Canaveral.
(§1) Living healthy specimens were captured locally using trawls and dip-nets. They were maintained in flowing seawater aquariums (ca. 500 liters) for days-weeks; sea nettles maintained for long periods were fed live minnows (mummichugs).
Healthy, actively swimming jellyfish were used in all examples, and the same procedure was applied in all cases.
Stings from sea wasps were induced by manually holding a live specimen by its bell, and dragging the tentacles across the inner forearm of the test subject. […] Stings from the larger sea nettles were induced using tweezers to manually remove tentacles from living specimens and dragging them across the inner lower forearms of test subjects.
(§2) Products were applied to sting sites within 1-2 minutes unless otherwise noted below. […] Thus one forearm was used for each treatment effect, and each forearm included two sting sites: one received a treatment while the other served as an untreated control. Tests were either conducted simultaneously in duplicate using two subjects, or sequentially several hours apart using the same subject.

[2] = stated as known; cited from earlier work
Solubility in water = format: physicochemical; conditions: Example 13 remark
tongue = assay: Minimum response time to topically applied anesthetic on the tongue; format: in vivo, human; conditions: Example 5; 5 mg of pure compound applied to the tongue
Procedure: Two formulations were tested in the present example to test the minimum response time of the human body to topically applied lidocaine and benzocaine:
5 mg of pure benzocaine applied to the tongue

jellyfish stings [3] = assay: Jellyfish sting test, jellyfish species not stated; format: in vivo, human; conditions: Example 20; 4% lidocaine hydrochloride in water
Excerpt: […] Healthy, actively swimming jellyfish were used in all examples, and the same procedure was applied in all cases. The same human test subjects were used in all experiments, in order to have continuity and be able to qualitatively compare treatment effects among experimental dates.
(§3) Stings from sea wasps were induced by manually holding a live specimen by its bell, and dragging the tentacles across the inner forearm of the test subject. Sea-wasps caused immediate stinging sensations. Stings from the larger sea nettles were induced using tweezers to manually remove tentacles from living specimens and dragging them across the inner lower forearms of test subjects. Sea-nettle stings were of the same or somewhat more intensity as those of sea wasps, but were not felt until about 15 s after contact, perhaps because the tentacles have visibly thicker gelatinous coatings.
as §2

fire ant bites = assay: Fire ant bite treatment, one subject; format: in vivo, human; conditions: Example 23
Procedure: The subject for this example had substantial experience with fire ant bites, with general symptoms of blistering, itching, pain associated with the bites. […] Subject received 7 fire ant bites while gardening outside. Subject applied the formulation to the seven bites approximately 15 minutes after the bites occurred.

[4] = tested on: nematocysts of sea nettle tentacles; assay: Microscopy observations of nematocyst responses to product exposure; conditions: Example 11; pipetted onto tentacles in seawater, viewed at 60×; lidocaine as 10% solution in seawater
Excerpt: Tentacles were removed using tweezers from an actively swimming sea nettle, placed in a glass Petri dish in seawater collected from the jellyfish tank (same salinity), and viewed at 60× under a zoom stereomicroscope while various liquid chemicals were pipetted directly onto the tentacles.

chigger bites = assay: Chigger bite treatment, one subject; format: in vivo, human; conditions: Example 22; two bites per treatment; lidocaine as 4% solution in water
Excerpt: Subject received 6 chigger bites on inner thigh area. Subject applied the formulation to two of the chigger bites, treated two others with Chigger Rid®, a drug store product, and applied clear finger nail polish, a home remedy, to the final two bites.

jellyfish stings [5] = assay: Beach surveys of beachgoers stung by a jellyfish; format: in vivo, human
Procedure: The beach surveys were conducted on beachgoers that stated they had been stung by a jellyfish. All participants voluntarily filled out an 8 question survey.
Locations: Tybee Island, Ga., Saint Simons Island, Ga., Hilton Head, S.C., Jacksonville beach, Fla., Daytona beach, Fla.
Time to application: Varied based on the person surveyed. Average times from sting to treatment ranged from 5 to 15 minutes.
Application to relief: Most respondents noted that they began to feel relief at the 1 minute mark. Based on an average level of affected area (less than 10% body coverage) the respondents noted virtually all the pain subsided by the 5 minute mark. (Most of the respondents who noted “some relief” departed within 2 minutes, which is the approximately time it took them to fill out the survey. Some of these respondents later returned to report total relief, but this is not shown in the data below). The results are presented in Table 3 and FIG. 2, below (total respondents: 232).

[6] = tested on: sea nettle (hrysaora quinquecirrha) stings; assay: Jellyfish sting test on inner forearm of human test subjects, sea nettle; format: in vivo
Excerpt: Two genera of jellyfish were used in examples 2-19 described below: Chiropsalmus quadumanus, a cubomedusa and member of the Scyphozoa, also known as the sea wasp; and another scyphozoan jellyfish, hrysaora quinquecirrha, commonly called the sea nettle. These are the two most common types of stinging jellies that occur with frequency and/or regularity in normal swimming waters on the USA east coast north of Cape Canaveral.
as §1
For examples 3-19, with the exception of the commercially available spray products and the meat tenderizer paste solution, all of the other test solutions were in liquid form and were applied using a one milliliter pipetter and sterile tips.
For examples 3-19 below, the following general procedures were followed. Healthy, actively swimming jellyfish were used in all examples, and the same procedure was applied in all cases. The same human test subjects were used in all experiments, in order to have continuity and be able to qualitatively compare treatment effects among experimental dates.
as §3
Products were applied to sting sites within 1-2 minutes unless otherwise noted below. […] Thus one forearm was used for each treatment effect, and each forearm included two sting sites: one received a treatment while the other served as an untreated control. […]

[7] = 4% Lidocaine and water, pump or trigger spray, total respondents 232

SMILES: N [Ammonia]
- treatment effect on sting pain ([1]; Example 3, sea wasps 2″ bell, meat tenderizer paste, ammonia and vinegar store-bought full strength, vs untreated control site): increased the initial pain

SMILES: CCOC(=O)c1ccc(N)cc1 [benzocaine]
- solubility in water [2]: sparingly soluble in water
- dissolves in water (Solubility in water): does not dissolve in water
- maintenance of relief ([1]; Example 3): maintained until the stinging sensation eventually decreased in control sites
- red rash at sting site ([1]; Example 3, sea wasps 2″ bell): substantially reduced
- time to sting relief ([1]; Example 4, sea wasp 3″ bell): 60 to 90 s
- onset of localized numbness (tongue): 30 s

SMILES: CCN(CC)CC(=O)Nc1c(C)cccc1C [lidocaine hydrochloride]
- time to initial pain relief after application (jellyfish stings [3]): around one

SMILES: CCN(CC)CC(=O)Nc1c(C)cccc1C [lidocaine]
- blister formation (fire ant bites; 4% lidocaine and water applied approximately 15 minutes after the bites): typical blisters did not form
- relief from pain and itching (fire ant bites; 4% lidocaine and water applied to 7 bites approximately 15 minutes after the bites): complete relief from pain and itching
- maintenance of relief ([1]; Example 3): maintained until the stinging sensation eventually decreased in control sites
- red rash at sting site ([1]; Example 3, sea wasps 2″ bell): substantially reduced
- redness at the sting site ([1]; Example 4, 10% lidocaine formulation compared with 10% benzocaine formulation): appeared to reduce redness at the sting site more than the benzocaine formulation
- time to sting relief ([1]; Example 4, sea wasp 3″ bell): 30 to 60 s
- rash ([1]; Example 6, 10% compared to 5% lidocaine in 80:20 water:propylene glycol): somewhat less pronounced
- pain relief ([1]; Example 6, both 5% and 10% lidocaine in 80:20 water:propylene glycol, sea wasp 3″ bell, compared to no treatment): substantial pain relief
- time to substantial relief ([1]; Example 7, 10% lidocaine in 80:20 water:propylene glycol without acetic acid, sea wasps 2″ bell, untreated stinging lasted about 30 minutes): about 1 minute
- relief after delayed application ([1]; Example 8, 10% lidocaine in 80:20 water:propylene glycol applied 5 min after sting): provided relief as though applied immediately
- time to relief ([1]; Example 8, 10% lidocaine in 80:20 water:propylene glycol applied immediately, sea wasp 2″ bell): approximately 1 minute
- nematocyst firing [4]: did not cause nematocysts from a new tentacle to fire
- onset of localized numbness (tongue): 30 s
- itching of chigger bites after treatment (chigger bites): ceased itching within minutes of application with no further symptoms
- time at which most respondents began to feel relief (jellyfish stings [5]; 4% Lidocaine and water spray, 5 to 15 minutes from sting to treatment): 1 min
- time by which virtually all the pain subsided (jellyfish stings [5]; 4% Lidocaine and water spray, affected area less than 10% body coverage): ≤ 5 min
- number of respondents: Much relief (jellyfish stings [5]; [7]): 128
- number of respondents: No relief (jellyfish stings [5]; [7]): 0
- number of respondents: Some relief (jellyfish stings [5]; [7]): 32
- number of respondents: Total relief (jellyfish stings [5]; [7]): 72
- performance as judged by the test subjects ([6]; Example 9, 10% lidocaine in water only compared with 10% lidocaine in 80:20 water:propylene glycol, sea nettle 6″ bell): slightly superior
- acted faster by ([6]; Example 16, 15% lidocaine in water compared with 10% lidocaine in water, sea nettle 4″ bell): 10 to 15 s

SMILES: NC(N)=O [urea]
- effect on the soothing effect of lidocaine ([6]; Example 12, 10% urea added to 10% lidocaine in water): did not appear to help or impede
